Source: the RepoRT retention time repository (doi:10.1016/j.aca.2011.12.065)
Counter-ions that a name gives are not always drawn.

What was measured:
[1] = RP, Waters ACQUITY UPLC HSS T3, 100 × 2.1 mm, 1.8 µm; A: water + 0.1% formic acid, pH 3; B: 30% methanol + 70% acetonitrile + 0.1% formic acid, pH 3; gradient (min/%B) 0.0/5 1.0/8 2.0/15 3.0/40 4.0/70 4.5/100 5.0/100 6.4/100 6.6/5.0 6.8/5.0 7.0/5.0; conditions: stereoisomer not certain
[2] = RP, Waters ACQUITY UPLC BEH C18, 100 × 2.1 mm, 1.7 µm; A: water + 0.1% formic acid, pH 3; B: 80% acetonitrile + 20% acetone + 0.1% formic acid, pH 3; gradient (min/%B) 0/0 6/100; conditions: stereoisomer not certain

SMILES | LC retention time [1] [min] | LC retention time [2] [min]
CC12CCC3C(CCC4CC(=O)CCC43C)C1CCC2O (stereo not drawn) | 4.47 | –
CCCCCCCCCCCCCCCCC=COCC(O)COP(=O)([O-])OCC[N+](C)(C)C (stereo not drawn) | – | 4.95
CCC(C)(O)C(=O)O (stereo not drawn) [2-Hydroxy-2-methylbutyric acid] | – | 1.63
CC(C)C(O)C(=O)O (stereo not drawn) [2-Hydroxy-3-methylbutyric acid] | – | 1.69
CCC(C)C(=O)C(=O)O (stereo not drawn) [2-Oxo-3-methylpentanoic acid] | – | 1.86
CC(C)CC(=O)C(=O)O [2-Oxo-4-methylpentanoic acid] | – | 1.99
CCCC(=O)C(=O)O [2-Oxovaleric acid] | – | 1.62
CC(C)(N)C(=O)O [2-aminoisobutyric acid] | 0.524 | –
CCC(C)(O)C(=O)O (stereo not drawn) [2-hydroxy-2-methylbutyric acid] | 2.23 | –
COc1ccc(O)c(C(=O)O)c1 [2-hydroxy-5-methoxylbenzoic acid] | 3.69 | –
CC(C)C(O)C(=O)O (stereo not drawn) [2-hydroxyisovaleric acid] | 2.54 | –
CC(=O)C(C)C(=O)O (stereo not drawn) [2-methylacetoacetic acid] | – | 1.61
Cc1ccccc1C(=O)NCC(=O)O [2-methylhippuric acid] | 3.41 | –
O=C(O)CCc1ccc(O)c(O)c1 [3,4-dihydroxyhydrocinnamic acid] | – | 1.69
OCC(O)c1ccc(O)c(O)c1 (stereo not drawn) [3,4-dihydroxyphenyl glycol] | – | 1.02
OCC(O)c1ccc(O)c(O)c1 (stereo not drawn) [3,4-dihydroxyphenylglycol] | 0.858 | –
Cn1c(=O)[nH]c(=O)c2c1[nH]c(=O)n2C [3,7-dimethyluric acid] | 1.55 | –
CC(O)C(C)C(=O)O (stereo not drawn) [3-Hydroxy-2-methylbutyric acid] | – | 1.51
CC(O)CC(=O)O (stereo not drawn) [3-hydroxybutyric acid] | 3.44 | –
O=C(O)Cc1c[nH]c2ccccc12 [3-indoleacetic acid] | 3.63 | –
Nc1ccc(OS(=O)(=O)O)cc1 [4-Aminophenyl hydrogen sulfate] | – | 0.641
Nc1ccc(O)cc1 [4-aminophenol] | – | 0.641
Cc1cc(C(=O)O)ccc1O [4-hydroxy-3-methylbenzoic acid] | 3.46 | –
O=C(O)Cc1c[nH]c2ccc(O)cc12 [5-hydroxyindole-3-acetic acid] | – | 1.61

SMILES | LC retention time [1] [min] | LC retention time [2] [min]
O=C(O)Cc1c[nH]c2ccc(O)cc12 [5-hydroxyindole-acetic acid] | 2.92 | –
COc1ccc(O)c(C(=O)O)c1 [5-methoxysalicylic acid] | – | 2.41
Cn1c(=O)[nH]c2[nH]c(=O)[nH]c(=O)c21 [7-methyluric acid] | 1.08 | –
Cn1cnc2[nH]c(=O)[nH]c(=O)c21 [7-methylxanthine] | 1.25 | –
CC12CCC(=O)C=C1CCC1C2CCC2(C)C1CCC2(O)C(=O)CO (stereo not drawn) [11-Deoxy-17-hydroxycorticosterone] | – | 3.04
CC(O)C1CCC2C3CCC4CC(=O)CCC4(C)C3CCC12C (stereo not drawn) [20-beta-Hydroxy-5-alpha-pregnan-3-one] | – | 4.33
CC[C@@H](O)C(=O)[O-] [(R)-2-hydroxybutyric acid] | – | 1.4
CC(C)C(=O)C(=O)O [Alpha-ketoisovaleric acid] | – | 1.45
O=C1OC(C(O)CO)C(O)=C1O (stereo not drawn) [Ascorbic acid] | 0.561 | –
CCCCCCCCCCCCCCCCOCC(COP(=O)([O-])OCC[N+](C)(C)C)OC(=O)CCCCCCCC(=O)O (stereo not drawn) [Azelaoyl PAF 10 ug/ml] | – | 4.86
CC12CCc3occc3C1CCC13CC(CCC12)C(O)(CO)C3 (stereo not drawn) [Cafestol (10x dilute)] | – | 3.19
CCC(C)C1NC(=O)C(C)NC1=O (stereo not drawn) [Cyclic(ala-ile)] | – | 1.8
CC(C)CC1NC(=O)C(C)NC1=O (stereo not drawn) [Cyclic(ala-leu)] | – | 1.86
O=C(O)CCC1NC(=O)C(CC(=O)O)NC1=O (stereo not drawn) [Cyclic(asp-glu)] | – | 0.884
CCC(C)C1NC(=O)C(CC(=O)O)NC1=O (stereo not drawn) [Cyclic(asp-ile)] | – | 1.65
CC(C)CC1NC(=O)C(CC(=O)O)NC1=O (stereo not drawn) [Cyclic(asp-leu)] | – | 1.68
CCC(C)C1NC(=O)C(CCC(=O)O)NC1=O (stereo not drawn) [Cyclic(glu-ile)] | – | 1.71
O=C(O)CCC1NC(=O)C2CCCN2C1=O (stereo not drawn) [Cyclic(glu-pro)] | – | 1.43
CC(C)C1NC(=O)C(CCC(=O)O)NC1=O (stereo not drawn) [Cyclic(glu-val)] | – | 1.5
CCC(C)C1NC(=O)C(C(C)C)NC1=O (stereo not drawn) [Cyclic(ile-val)] | – | 2.31
CC(C)C1NC(=O)C(Cc2ccccc2)NC1=O (stereo not drawn) [Cyclic(phe-val)] | – | 2.39
CC(C)C1NC(=O)C2CCCN2C1=O (stereo not drawn) [Cyclic(pro-val)] | – | 1.74
O=C(O)CNC(=O)C=Cc1c[nH]c2ccccc12 [INDOLE-3-ACRYLOYLGLYCINE] | – | 2.13
CCCCCC=CCC=CCCCCCCCC(=O)OCC(O)COP(=O)([O-])OCC[N+](C)(C)C (stereo not drawn) [LPC(18:2)_enz] | – | 4.25

SMILES | LC retention time [1] [min] | LC retention time [2] [min]
CCC=CCC=CCC=CCC=CCC=CCCCC(=O)OCC(O)COP(=O)([O-])OCC[N+](C)(C)C (stereo not drawn) [LPC(20:5)_enz] | – | 4.02
CNC(CC(=O)O)C(=O)O (stereo not drawn) [N-methyl-aspartic acid] | – | 0.58
O=C(O)CNC(=O)c1cccnc1 [Nicotinuric acid] | – | 1.35
CCCCCCCCCCCCCCCC(=O)OCC(COP(=O)([O-])OCC[N+](C)(C)C)OC(=O)CCCCCCCC(=O)O (stereo not drawn) [PAZ-PC] | – | 4.66
CCC=CCC=CCC=CCC=CCC=CCCCC(=O)OCC(COP(=O)([O-])OCC[N+](C)(C)C)OC(=O)CCCC=CCC=CCC=CCC=CCC=CCC (stereo not drawn) [PC(20:5/20:5)] | – | 5.62
CCCCCCCCCCCCCCCC(=O)OCC(COP(=O)([O-])OCC[N+](C)(C)C)OC(=O)CCCC(=O)O (stereo not drawn) [PGPC] | – | 4.52
CCCCCCCCCCCCCCCC(=O)OCC(COP(=O)([O-])OCC[N+](C)(C)C)OC(=O)CCCC=O (stereo not drawn) [POV-PC 10 ug/ml] | – | 4.66
CC(C)C(NC(=O)C(N)Cc1ccccc1)C(=O)O (stereo not drawn) [Phe-Val] | – | 1.63
CC12C=CC(=O)C=C1CCC1C2C(O)CC2(C)C1CCC2(O)C(=O)CO (stereo not drawn) [Prednisolone] | – | 2.65
O=C(O)C1OC(Oc2ccccc2O)C(O)C(O)C1O (stereo not drawn) [Pyrocatechol glucuronide] | 2.81 | –
C[N+](C)(C)[O-] [TMAO] | 0.468 | –
Cc1ncc(C[n+]2csc(CCOP(=O)(O)O)c2C)c(N)n1 [Thiamine monophosphate Cloride dihydrat] | – | 0.595
CC(C)C(N)C(=O)NC(Cc1ccccc1)C(=O)O (stereo not drawn) [Val-Phe] | – | 1.7
CC(C)C(N)C(=O)O (stereo not drawn) [Valine] | – | 0.798
CC(=O)Nc1c(N)[nH]c(=O)n(C)c1=O [aamu] | 0.666 | –
C=CCS(=O)CC(N)C(=O)O (stereo not drawn) [aliin] | 0.638 | –
NC(=O)NC(NC(N)=O)C(=O)O [allantoic acid] | 0.491 | –
CC(C)(O)C(=O)O [alpha-hydroxyisobutyric acid] | – | 1.4
CC(C)C(=O)C(=O)O [alpha-ketoisovaleric acid] | 1.92 | –
Cn1cncc1CC(NC(=O)CCN)C(=O)O (stereo not drawn) [anserine] | 0.441 | –
CCC(C)C(NC(=O)C(N)CC(=O)O)C(=O)O (stereo not drawn) [asp-ile] | – | 0.6
CC(C)CC(NC(=O)C(N)CC(=O)O)C(=O)O (stereo not drawn) [asp-leu] | – | 0.6
NC(CC(=O)O)C(=O)NC(Cc1ccccc1)C(=O)O (stereo not drawn) [asp-phe] | 2.67 | –
CCC(C)C(NC(=O)CC(N)C(=O)O)C(=O)O (stereo not drawn) [beta-asp-ile] | – | 0.6

SMILES | LC retention time [1] [min] | LC retention time [2] [min]
CC(C)CC(NC(=O)CC(N)C(=O)O)C(=O)O (stereo not drawn) [beta-asp-leu] | – | 0.6
CC(O)CC(=O)[O-] (stereo not drawn) [beta-hydroxybutyric acid] | – | 1.78
CC(CO)C(=O)O (stereo not drawn) [beta-hydroxyisobutyric acid] | – | 1.4
NCCC(=O)NC(Cc1cnc[nH]1)C(=O)O (stereo not drawn) [carnosine] | 0.437 | –
CS(=O)CCC(N)C(=O)O (stereo not drawn) [dl methine sulfoxide] | – | 0.596
O=C(O)CCCO [gamma-hydroxybutyric acid] | – | 1.07
CC(C)C(NC(=O)C(N)CCC(=O)O)C(=O)O (stereo not drawn) [glu-val] | – | 1.32
CCC(C)C(N)C(=O)NC(CC(=O)O)C(=O)O (stereo not drawn) [ile-asp] | – | 0.6
O=Cc1c[nH]c2ccccc12 [indole-3-carbaldehyde] | – | 2.27
Nc1ccccc1C(=O)CC(N)C(=O)O (stereo not drawn) [l-kynurenine] | – | 1.34
CC(C)CC(N)C(=O)NC(CC(=O)O)C(=O)O (stereo not drawn) [leu-asp] | – | 0.6
O=C(O)CC(NC(=O)C1CCC(=O)N1)C(=O)O (stereo not drawn) [pglu-asp] | – | 0.6
CCC(C)C(NC(=O)C1CCC(=O)N1)C(=O)O (stereo not drawn) [pglu-ile] | – | 1.83
CC(C)CC(NC(=O)C1CCC(=O)N1)C(=O)O (stereo not drawn) [pglu-leu] | – | 1.89
CC(C)C(NC(=O)C1CCC(=O)N1)C(=O)O (stereo not drawn) [pglu-val] | – | 1.57
NC(Cc1ccccc1)C(=O)NC(CC(=O)O)C(=O)O (stereo not drawn) [phe-asp] | – | 1.54
CC(O)C(NC(=O)C1CCCN1)C(=O)O (stereo not drawn) [pro-thr] | – | 0.6
CCC(=O)OC(CC(=O)[O-])C[N+](C)(C)C (stereo not drawn) [propionylcarnitine chloride] | – | 1.35
COc1cc(C(=O)O)cc(OC)c1O [syringic acid] | – | 1.79
CC(CCC(=O)NCCS(=O)(=O)O)C1CCC2C3CCC4CC(O)CCC4(C)C3CCC12C (stereo not drawn) [taurolithocholic acid] | – | 3.84
CC(C)C(N)C(=O)NC(CCC(=O)O)C(=O)O (stereo not drawn) [val-glu] | – | 0.906
